Measured values taken from patent publication US11351173B2, “Substituted pyrrolo[1,2-a]pyrimidines and their use in the treatment of medical disorders” (Bial—R&D Investments, S.A., priority 2014, dated 2022).
≈ marks a conversion by molar mass, not a printed value.

Legend:
[1] = Compound solubility in water; conditions: water, Compound Solubility in Water
[2] = molecular target: T1, glucocerebrosidase (Gcase) (Homo sapiens, UniProt P04062); assay: Glucocerebrosidase (Gcase) activation assay, 4-methylumbelliferyl-beta-D-glucopyranoside substrate, fluorescence readout; format: biochemical; conditions: for activation at 0.1 µM: test compound at 0.1 μM, read-out: Percent Gcase Activation, 0.1 μM Test Compound; for activation at 1 µM: test compound at 1.0 μM, read-out: Percent Gcase Activation, 1 μM Test Compound
T1 construct: micellar solution containing 10 nM GCase and 100 nM saposin C
T1 sequence (P04062 40-536): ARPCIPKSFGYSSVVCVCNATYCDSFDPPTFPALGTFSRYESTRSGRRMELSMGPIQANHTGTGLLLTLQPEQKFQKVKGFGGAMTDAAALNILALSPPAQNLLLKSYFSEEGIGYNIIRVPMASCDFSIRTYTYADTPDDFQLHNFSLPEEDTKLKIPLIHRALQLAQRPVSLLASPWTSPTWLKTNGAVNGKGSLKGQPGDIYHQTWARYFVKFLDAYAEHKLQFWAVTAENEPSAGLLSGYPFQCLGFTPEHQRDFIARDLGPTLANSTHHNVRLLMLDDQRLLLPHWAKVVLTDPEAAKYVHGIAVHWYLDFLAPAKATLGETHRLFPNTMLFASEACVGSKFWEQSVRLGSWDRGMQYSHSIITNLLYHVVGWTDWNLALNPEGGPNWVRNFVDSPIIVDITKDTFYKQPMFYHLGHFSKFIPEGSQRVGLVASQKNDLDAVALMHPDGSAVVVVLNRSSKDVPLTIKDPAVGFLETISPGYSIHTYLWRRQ
Method: The ability of exemplary compounds to activate glucocerebrosidase (Gcase) was measured.
A 484 μL aliquot of a 1.0 mg/mL solution of phosphatidylserine (PS) (Sigma P7769) in chloroform was evaporated under a stream of nitrogen for 1 hour. The lipid film was dissolved over 4 minutes of vigorous vortexing in 40 mL of 176 mM K2HPO4/50 mM citric acid (pH 4.7) containing 7.5 μL of triton X-100, resulting in a mixed micellar preparation with a composition of 0.32 mM triton and 0.37 mol % PS. 4-Methylumbelliferyl-beta-D-glucopyranoside (ACROS-337025000) was dissolved in the micellar solution to a final concentration of 2 mM for use as the reaction substrate.
Test compounds were diluted to the desired concentrations with dimethylsulfoxide (DMSO) from 10 mM stocks, and 0.41 μL of the DMSO compound mixture was added to 100 μL of micellar solution containing 10 nM GCase and 100 nM saposin C (Enzo ALX-201-262-C050). Pre-incubation was allowed to occur for 30 minutes at room temperature, after which the reaction was initiated by combining 25 μL of substrate solution with 25 μL of compound/GCase/saposin mixture. The reaction proceeded for 15 minutes at room temperature and was stopped by adding 150 μL of 1M glycine, pH 12.5. The endpoint of the reaction was monitored by measuring fluorescence intensity (excitation: 365 nm; emission: 440 nm) on a SpectraMax i3 instrument (Molecular Devices). Test compounds were screened at 1.0 and 0.1 μM final concentration, and subsequent 8-point dose response curves were obtained using 3-fold dilutions from a maximum final concentration of 5 μM.

| SMILES | solubility [1] [µg/mL] | activation at 0.1 µM [2] [%] | activation at 1 µM [2] [%] |
| --- | --- | --- | --- |
| CCCCCO[C@H]1CC[C@H](NC(=O)c2ccn3c(C(F)F)cc(C(F)F)nc23)CC1 [III-25] | 0.4 (≈ 0.931 µM) | > 20 | > 60 |
| CCCCO[C@H]1CC[C@H](NC(=O)c2ccn3c(C)cc(C)nc23)CC1 [III-26] | 18.1 (≈ 52.7 µM) | > 20 | > 60 |
| Cc1cc(C(F)F)n2ccc(C(=O)Nc3ccc(-c4cocn4)cc3)c2n1 [III-27] | 0.3 (≈ 0.814 µM) | > 20 | 30 to 60 |
| Cc1cc(C(F)F)n2ccc(C(=O)NC3CCCc4ccccc43)c2n1 (stereo not drawn) [III-28] | 0.7 (≈ 1.97 µM) | > 20 | > 60 |
| Cc1cc(C(F)F)nc2c(C(=O)NC3CCCc4ccccc43)ccn12 (stereo not drawn) [III-29] | 0.9 (≈ 2.53 µM) | > 20 | > 60 |
| Cc1cc(C(F)F)nc2c(C(=O)Nc3ccc(-c4cocn4)cc3)ccn12 [III-30] | 0.06 (≈ 0.163 µM) | > 20 | 30 to 60 |
| CCCCO[C@H]1CC[C@H](NC(=O)c2ccn3c(COC)cc(C)nc23)CC1 [III-33] | 21 (≈ 56.2 µM) | 10 to 20 | > 60 |
| CCCCO[C@H]1CC[C@H](NC(=O)c2ccn3c(COC)cc(C(F)F)nc23)CC1 [III-34] | 1.8 (≈ 4.4 µM) | 10 to 20 | > 60 |
| CCCCO[C@H]1CC[C@H](NC(=O)c2ccn3c(C(F)F)cc(COC)nc23)CC1 [III-35] | 11.7 (≈ 28.6 µM) | > 20 | > 60 |
| CCCCO[C@H]1CC[C@H](NC(=O)c2ccn3c(COC)cc(C(C)C)nc23)CC1 [III-36] | 3.5 (≈ 8.72 µM) | > 20 | > 60 |
| CCCCO[C@H]1CC[C@H](NC(=O)c2ccn3c(C(C)C)cc(COC)nc23)CC1 [III-37] | 18 (≈ 44.8 µM) | 10 to 20 | > 60 |
| Cc1cc(Cl)nc2c(C(=O)Nc3ccc(-c4cocn4)cc3)ccn12 [III-38] | 0.3 (≈ 0.85 µM) | > 20 | 30 to 60 |
| Cc1cc(Cl)n2ccc(C(=O)Nc3ccc(-c4cocn4)cc3)c2n1 [III-39] | 0.7 (≈ 1.98 µM) | 10 to 20 | 30 to 60 |
| Cc1cc(Br)nc2c(C(=O)Nc3ccc(-c4cocn4)cc3)ccn12 [III-40] | 0.3 (≈ 0.755 µM) | 10 to 20 | > 60 |
| Cc1cc(Br)n2ccc(C(=O)Nc3ccc(-c4cocn4)cc3)c2n1 [III-41] | 0.02 (≈ 0.0503 µM) | < 10 | 30 to 60 |
| COCc1cc(C)n2ccc(C(=O)N[C@H]3CCCc4ccccc43)c2n1 [III-42] | 0.4 (≈ 1.14 µM) | > 20 | > 60 |
| COCCOCc1cc(C)n2ccc(C(=O)N[C@H]3CCCc4ccccc43)c2n1 [III-43] | 25.2 (≈ 64 µM) | 10 to 20 | > 60 |
| CCCCO[C@H]1CC[C@H](NC(=O)c2ccn3c(C4CC4)cc(C)nc23)CC1 [III-44] | 2.3 (≈ 6.22 µM) | 10 to 20 | > 60 |
| CCCCO[C@H]1CC[C@H](NC(=O)c2ccn3c(C)cc(COC)nc23)CC1 [III-45] | 13.6 (≈ 36.4 µM) | 10 to 20 | > 60 |

| SMILES | solubility [1] [µg/mL] | activation at 0.1 µM [2] [%] | activation at 1 µM [2] [%] |
| --- | --- | --- | --- |
| Cc1cc(C2CC2)n2ccc(C(=O)N[C@H]3CC[C@H](OCCCC(F)(F)F)CC3)c2n1 [III-46] | 1.7 (≈ 4.01 µM) | < 10 | > 60 |
| Cc1cc(C2CC2)n2ccc(C(=O)N[C@H]3CC[C@H](OCCCCC(F)(F)F)CC3)c2n1 [III-47] | 0.3 (≈ 0.686 µM) | < 10 | > 60 |
| COCc1cc(C)n2ccc(C(=O)NC(C)(C)c3ccc(-c4cocn4)cc3)c2n1 [III-48] | 3.5 (≈ 8.65 µM) | 10 to 20 | > 60 |
| COCc1cc(C)nc2c(C(=O)NC(C)(C)c3ccc(-c4cocn4)cc3)ccn12 [III-49] | 1.7 (≈ 4.2 µM) | > 20 | > 60 |
| COCc1cc(C)n2ccc(C(=O)Nc3ccc(-c4cocn4)cc3)c2n1 [III-50] | 0.3 (≈ 0.828 µM) | > 20 | > 60 |
| COc1cc(C)n2ccc(C(=O)Nc3ccc(-c4cocn4)cc3)c2n1 [III-52] | 0.1 (≈ 0.287 µM) | 10 to 20 | 30 to 60 |
| Cc1cc(O)n2ccc(C(=O)Nc3ccc(-c4cocn4)cc3)c2n1 [III-55] | 1.8 (≈ 5.38 µM) | < 10 | < 30 |
| Cc1cc(O)n2ccc(C(=O)NC3CCCc4ccccc43)c2n1 (stereo not drawn) [III-56] | 3.7 (≈ 11.5 µM) | < 10 | < 30 |
| COCc1cc(C(F)F)nc2c(C(=O)NC3(C)CCOc4cc(F)c(F)cc43)ccn12 (stereo not drawn) [III-57] | 1.5 (≈ 3.43 µM) | 10 to 20 | > 60 |
| COCc1cc(C(F)F)n2ccc(C(=O)NC3(C)CCOc4cc(F)c(F)cc43)c2n1 (stereo not drawn) [III-58] | 4.1 (≈ 9.37 µM) | 10 to 20 | > 60 |
| [2H]C1(NC(=O)c2ccn3c(COC)cc(C(C)C)nc23)CCOc2cc(F)c(F)cc21 (stereo not drawn) [III-59] | 0.07 (≈ 0.168 µM) | 10 to 20 | > 60 |
| [2H]C1(NC(=O)c2ccn3c(C(C)C)cc(COC)nc23)CCOc2cc(F)c(F)cc21 (stereo not drawn) [III-60] | 2.4 (≈ 5.76 µM) | < 10 | 30 to 60 |
| C#Cc1ccc(C(C)(C)NC(=O)c2ccn3c(C)cc(COC)nc23)cc1 [III-61] | 2.5 (≈ 6.92 µM) | > 20 | > 60 |
| C#Cc1ccc(C(C)(C)NC(=O)c2ccn3c(COC)cc(C)nc23)cc1 [III-62] | 2.7 (≈ 7.47 µM) | > 20 | > 60 |
| C#Cc1cccc(C(C)(C)NC(=O)c2ccn3c(COC)cc(C)nc23)c1 [III-63] | 0.8 (≈ 2.21 µM) | 10 to 20 | > 60 |
| C#Cc1cccc(C(C)(C)NC(=O)c2ccn3c(C)cc(COC)nc23)c1 [III-64] | 0.5 (≈ 1.38 µM) | > 20 | > 60 |
| CCCCO[C@H]1CC[C@H](NC(=O)c2ccn3c(C)cc(Cl)nc23)CC1 [III-65] | 8.2 (≈ 22.5 µM) | > 20 | > 60 |
| CCCCO[C@H]1CC[C@H](NC(=O)c2ccn3c(C)cc(NC)nc23)CC1 [III-66] | 0.4 (≈ 1.12 µM) | 10 to 20 | > 60 |
| CCCCO[C@H]1CC[C@H](NC(=O)c2ccn3c(C)cc(C(F)F)nc23)CC1 [III-67] | 4.7 (≈ 12.4 µM) | > 20 | > 60 |
